In general, GI50 refers to the concentration at which growth is held to half of that of the control. In general, TGI refers to the concentration at which net growth stops. Low readings indicate greater sensitivity of the cells, high ones lower sensitivity of the cells.

The record followed here is PubChem BioAssay (NCI).

Assay in all cases: DTP human tumour cell line panel, 48 h
Experiment [1] concerns 786-0 renal.
The test system of experiment [2] is EKVX NSCLC.
The subject of experiment [3] is HS 578T breast.
Experiment [4] relates to MALME-3M melanoma.
In experiment [5] the test system is MCF7 breast.
In experiment [6] the test system is NCI-H226 lung.
In experiment [7] the test system is PC-3 prostate.
Experiment [8] relates to SK-MEL-28 melanoma.
In experiment [9] the test system is SNB-19 CNS.
Experiment [10] deals with SR leukemia.

Values joined by “and” are separate entries in the source; they are usually repeats but may differ in a detail not shown here. Equal entries are not always repeated.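 Exposure lasted 48 hours, with cells grown in 96-well plates and compounds tested at five concentrations. Abbreviation: GI50, concentration required for 50% inhibition of growth. Definition used: TGI = concentration required for complete inhibition of growth.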 *1 amine or outer side, *2 acyl side, *3 side chain or, on linkers, in order; H or OH if unused. Where a SMILES comes first, the peptide text is derived from it. Bridges are numbered along the chain shown (N, C = ends). [ ]: non-standard residue; d: D form. ξ: configuration not given here. X4 = CCC(C)C(N[*:1])C(O)CC(=O)O[C@H](C(=O)C(C)C(=O)[*:2])C(C)C; NMeY = CN[C@@H](Cc1ccc(O)cc1)C(=O)O; X9 = O=C([C@@H]1CC(O)CN1[*:1])[*:2]; ξNMeL = CNC(CC(C)C)C(=O)O; ξT = CC(O)C(N)C(=O)O

For the compound `C[C@]12CC[C@H]3[C@@H](CC=C4C[C@@H](O)CC[C@@]43C)[C@@H]1C/C(=C\c1cccc(OCCN3CCOCC3)c1)[C@@H]2O`, the GI50 in experiment [1] is 50.7 µM; in experiment [2], over 100 µM; in experiment [3], over 100 µM; in experiment [4], 29.8 µM; in experiment [5], over 100 µM; in experiment [6], over 100 µM. Besides, the GI50 is 27.4 µM in experiment [7], 22.4 µM in [8] and over 100 µM in experiment [9]. Besides, the concentration for total growth inhibition (TGI) is over 100 µM in experiment [1]; over 100 µM in experiment [2]; over 100 µM in [3]; 65.1 µM in experiment [4]; over 100 µM in experiment [5]; over 100 µM in [6]. Further, the TGI in [7] was over 100 µM; in experiment [8], 56.4 µM; in experiment [9], over 100 µM.

As to `O=C(Oc1ccccc1)c1cc(O)c(O)c(O)c1`, the GI50 in [1] was 11.2 µM; in [2], 8.95 µM; in experiment [3], 4.67 µM; in experiment [4], 21.8 µM; in experiment [5], 24.7 µM; in experiment [6], 12.9 µM. The GI50 was 13.7 µM in experiment [7], 19.2 µM in experiment [8] and 13.8 µM in experiment [9]. Further, the TGI in experiment [1] was 50 µM; in experiment [2], over 100 µM; in experiment [3], over 100 µM; in [4], over 100 µM; in experiment [5], over 100 µM; in [6] it was over 100 µM. In addition, the TGI in experiment [7], in experiment [8] and in experiment [9] was over 100 µM throughout.

With `COc1cc2c(/C=C3/C(=O)Nc4ccccc43)c(Cl)n(Cc3ccccc3)c2cc1C`, the GI50 in experiment [1], in [2], in experiment [3], in [4], in experiment [5] and in [6] was over 100 µM throughout. In addition, the GI50 is 87.9 µM in experiment [7] and over 100 µM in experiment [9]. The TGI in experiment [1], in experiment [2], in experiment [3], in experiment [4], in experiment [5] and in experiment [6] was over 100 µM throughout. In addition, the TGI in experiment [7] and in experiment [9] was over 100 µM throughout.

In the case of `COc1ccc(-c2ccc(/C=N/n3cn[nH]c3=S)o2)c([N+](=O)[O-])c1`, the GI50 was 66.2 µM in [1]; 75 µM in [2]; 30.6 µM in [3]; 23.8 µM in experiment [4]; 25.4 µM in experiment [5]; 35.7 µM in experiment [7]. Also, the GI50 was 48.6 µM in experiment [8] and 63.2 µM in experiment [9]. For the same compound, the TGI was over 100 µM in experiment [1]; over 100 µM in experiment [2]; 85.3 µM in experiment [3]; over 100 µM in [4]; 89.1 µM in experiment [5]; over 100 µM in [7]. Moreover, the TGI in experiment [8] and in experiment [9] was over 100 µM throughout.

For `CC1(C)CCSC(/C=C/c2ccccc2)=N1`, the TGI in experiment [1] was 25.6 µM; in [2] it was 63.7 µM; in [3] it was over 100 µM; in [4], 25.6 µM; in experiment [5] it was 27.6 µM; in experiment [7], 30.5 µM. For the same compound, the TGI in [8] turned out to be 43 µM; in [9] it was 46 µM.

In the case of `CCC(C)C1NC(=O)C(NC(=O)C(CC(C)C)N(C)C(=O)[C@@H]2CC(O)CN2)C(C)OC(=O)[C@H](Cc2ccc(OC)cc2)N(C)C(=O)[C@@H]2CCCN2C(=O)[C@H](CC(C)C)NC(=O)C(C)C(=O)[C@H](C(C)C)OC(=O)CC1O` (stereo not given in full) (H-[X9][ξNMeL][ξT][X4]LP[NMeY](Me); ester 3-C), the values for the concentration for 50% growth inhibition (GI50) in experiment [1] and in experiment [6] were 0.0162 µM and 0.0302 µM, respectively. Also, the TGI in experiment [1] is 0.149 µM and 1.25 µM; in experiment [2] it was 0.266 µM; in [3] it was 0.0555 µM and 0.0238 µM; in experiment [4], 0.0989 µM and 0.139 µM; in experiment [6] it was 0.0804 µM and 0.355 µM; in experiment [7] it was 0.13 µM and 0.131 µM. Further, the TGI is 0.0194 µM and 0.106 µM in experiment [8]; 0.45 µM and 0.148 µM in experiment [9]; over 100 µM in [10].

Take `O=[N+]([O-])c1cccc(-c2nc3sccn3c2-c2ccnc(NCCCNS(=O)(=O)c3ccc(F)cc3)n2)c1`: the GI50 in experiment [1] was 7.39 µM; in experiment [2], 2.9 µM; in [3], 3.25 µM; in experiment [4], 2 µM; in [6] it was 1.95 µM; in [7] it was 1.14 µM. Moreover, the GI50 in experiment [8] is 2.75 µM; in experiment [9] it was 4.01 µM; in experiment [10], 2.53 µM. Moreover, the TGI in experiment [1] was over 100 µM; in experiment [2], over 100 µM; in [3], over 100 µM; in [4], 6.76 µM; in experiment [6], 7.6 µM; in [7] it was 4.82 µM. Moreover, the TGI in [8] was 7.92 µM; in experiment [9], over 100 µM; in [10], over 100 µM.
